US20110173718A1, “HERBICIDE TOLERANT PLANTS” (SYNGENTA CROP PROTECTION, INC., priority 2008, published 2011)
Read-outs that look alike come from different tables or passages of the source.

Tests used:
weeds = experiment: Glasshouse weed control, HST inhibitors alone and with A22, post-emergence; assay type: in vivo; settings: 14 DAT, single replicate; for pest or weed control at 15.625 g/ha / pest or weed control at 62.5 g/ha / pest or weed control at 250 g/ha: 336 h, read-out: % control score, Obs
Summary of the method: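 Weeds grown in glasshouse trays (24-27 C day, 18-21 C night, ~15 h photoperiod) and track-sprayed in 0.2% X77 at […], pre-emergence or post-emergence at about 7-12 d. HPPD inhibitor A22 applied at 2 g/ha alone or mixed with HST herbicides. Damage scored 0–100% at 14 DAT; synergy calculated by Colby formula.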

[1] = system: wild-type (WT) Samsun tobacco; experiment: Glasshouse spray test, wild-type tobacco; assay type: in vivo; settings: for % damage observed 16 DAT: w/t tobacco; for score on a scale from 0 to 10 (0 substantially bleached/burnt, meristem dead/white; 10 entire plant green and undamaged): 500 g/ha, 11 DAT
Summary of the method: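 Wild-type Samsun tobacco grown from seed was planted in 3 inch pots, grown on under glasshouse conditions (about 24-27° C. day, 18-21° C. night, ~14 h photoperiod, ~65% humidity) and spray-treated alongside transgenic lines. Test chemicals were formulated in water with 0.2% X77 surfactant and applied by track sprayer at 200 l/ha. Height reduction, bleaching and damage were scored against unsprayed control plants of like size.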

[2] = Digitaria sanguinalis, DIGSA, 15.625 g/ha alone
[3] = Digitaria sanguinalis, DIGSA, 62.5 g/ha alone
[4] = Digitaria sanguinalis, DIGSA, 250 g/ha alone
[5] = Echinochloa crus-galli, ECHCG, 15.625 g/ha alone
[6] = Echinochloa crus-galli, ECHCG, 62.5 g/ha alone
[7] = Echinochloa crus-galli, ECHCG, 250 g/ha alone
[8] = Setaria faberi, SETFA, 15.625 g/ha alone
[9] = Setaria faberi, SETFA, 62.5 g/ha alone
[10] = Setaria faberi, SETFA, 250 g/ha alone

O=c1c(-c2c(Cl)ccc(Cl)c2Cl)c(O)c2nccnc2n1CC(F)F [Compound 2.14]
pest or weed control at 15.625 g/ha (weeds; BRAPL, 15.625 g/ha alone): 30% | pest or weed control at 62.5 g/ha (weeds; BRAPL, 62.5 g/ha alone): 60% | pest or weed control at 250 g/ha (weeds; BRAPL, 250 g/ha alone): 60% | pest or weed control at 15.625 g/ha (weeds; PANMI, 15.625 g/ha alone): 40% | pest or weed control at 62.5 g/ha (weeds; PANMI, 62.5 g/ha alone): 60% | pest or weed control at 250 g/ha (weeds; PANMI, 250 g/ha alone): 90% | pest or weed control at 15.625 g/ha (weeds; SIDSP, 15.625 g/ha alone): 15% | pest or weed control at 62.5 g/ha (weeds; SIDSP, 62.5 g/ha alone): 30% | pest or weed control at 250 g/ha (weeds; SIDSP, 250 g/ha alone): 50% | pest or weed control at 15.625 g/ha (weeds; [2]): 10% | pest or weed control at 62.5 g/ha (weeds; [3]): 20% | pest or weed control at 250 g/ha (weeds; [4]): 20% | pest or weed control at 15.625 g/ha (weeds; [5]): 30% | pest or weed control at 62.5 g/ha (weeds; [6]): 50% | pest or weed control at 250 g/ha (weeds; [7]): 65% | pest or weed control at 15.625 g/ha (weeds; [8]): 25% | pest or weed control at 62.5 g/ha (weeds; [9]): 60% | pest or weed control at 250 g/ha (weeds; [10]): 70%

O=c1c(-c2c(F)ccc(Br)c2Cl)c(O)c2nccnc2n1CC(F)F [Compound 2.8]
pest or weed control at 15.625 g/ha (weeds; BRAPL, 15.625 g/ha alone): 20% | pest or weed control at 62.5 g/ha (weeds; BRAPL, 62.5 g/ha alone): 55% | pest or weed control at 250 g/ha (weeds; BRAPL, 250 g/ha alone): 85% | pest or weed control at 15.625 g/ha (weeds; PANMI, 15.625 g/ha alone): 40% | pest or weed control at 62.5 g/ha (weeds; PANMI, 62.5 g/ha alone): 50% | pest or weed control at 250 g/ha (weeds; PANMI, 250 g/ha alone): 80% | pest or weed control at 15.625 g/ha (weeds; SIDSP, 15.625 g/ha alone): 30% | pest or weed control at 62.5 g/ha (weeds; SIDSP, 62.5 g/ha alone): 45% | pest or weed control at 250 g/ha (weeds; SIDSP, 250 g/ha alone): 50% | pest or weed control at 15.625 g/ha (weeds; [2]): 5% | pest or weed control at 62.5 g/ha (weeds; [3]): 20% | pest or weed control at 250 g/ha (weeds; [4]): 60% | pest or weed control at 15.625 g/ha (weeds; [5]): 10% | pest or weed control at 62.5 g/ha (weeds; [6]): 40% | pest or weed control at 250 g/ha (weeds; [7]): 65% | pest or weed control at 15.625 g/ha (weeds; [8]): 5% | pest or weed control at 62.5 g/ha (weeds; [9]): 65% | pest or weed control at 250 g/ha (weeds; [10]): 60%

O=c1c(-c2c(F)ccc(F)c2Cl)c(O)c2nccnc2n1CC(F)F [Compound 2.3]
% damage observed 16 DAT ([1]; 37 g/ha): 17% | % damage observed 16 DAT ([1]; 111 g/ha): 40% | % damage observed 16 DAT ([1]; 333 g/ha): 47% | score on a scale from 0 to 10 (0 substantially bleached/burnt, meristem dead/white; 10 entire plant green and undamaged) ([1]; W/T_SD): 0 | score on a scale from 0 to 10 (0 substantially bleached/burnt, meristem dead/white; 10 entire plant green and undamaged) ([1]; W/T_TC): 0 | % damage observed 16 DAT ([1]; 1000 g/ha): 57% | % control score, Obs (weeds; BRAPL, 15.625 g/ha alone): 20% | % control score, Obs (weeds; BRAPL, 62.5 g/ha alone): 50% | % control score, Obs (weeds; BRAPL, 250 g/ha alone): 70% | % control score, Obs (weeds; DIGSA, 15.625 g/ha alone): 2% | % control score, Obs (weeds; DIGSA, 62.5 g/ha alone): 35% | % control score, Obs (weeds; DIGSA, 250 g/ha alone): 45% | % control score, Obs (weeds; ECHCG, 15.625 g/ha alone): 5% | % control score, Obs (weeds; ECHCG, 62.5 g/ha alone): 30% | % control score, Obs (weeds; ECHCG, 250 g/ha alone): 40% | % control score, Obs (weeds; PANMI, 15.625 g/ha alone): 2% | % control score, Obs (weeds; PANMI, 62.5 g/ha alone): 55% | % control score, Obs (weeds; PANMI, 250 g/ha alone): 65% | % control score, Obs (weeds; SETFA, 15.625 g/ha alone): 5% | % control score, Obs (weeds; SETFA, 62.5 g/ha alone): 40% | % control score, Obs (weeds; SETFA, 250 g/ha alone): 60% | % control score, Obs (weeds; SIDSP, 15.625 g/ha alone): 10% | % control score, Obs (weeds; SIDSP, 62.5 g/ha alone): 40% | % control score, Obs (weeds; SIDSP, 250 g/ha alone): 55%

O=c1c(-c2c(F)ccc(Br)c2Cl)c(O)c2cccnc2n1CC(F)F [Compound 2.15]
pest or weed control at 15.625 g/ha (weeds; BRAPL, 15.625 g/ha alone): 0% | pest or weed control at 62.5 g/ha (weeds; BRAPL, 62.5 g/ha alone): 0% | pest or weed control at 250 g/ha (weeds; BRAPL, 250 g/ha alone): 5% | pest or weed control at 15.625 g/ha (weeds; PANMI, 15.625 g/ha alone): 0% | pest or weed control at 62.5 g/ha (weeds; PANMI, 62.5 g/ha alone): 0% | pest or weed control at 250 g/ha (weeds; PANMI, 250 g/ha alone): 0% | pest or weed control at 15.625 g/ha (weeds; SIDSP, 15.625 g/ha alone): 0% | pest or weed control at 62.5 g/ha (weeds; SIDSP, 62.5 g/ha alone): 10% | pest or weed control at 250 g/ha (weeds; SIDSP, 250 g/ha alone): 15% | pest or weed control at 15.625 g/ha (weeds; [2]): 0% | pest or weed control at 62.5 g/ha (weeds; [3]): 0% | pest or weed control at 250 g/ha (weeds; [4]): 0% | pest or weed control at 15.625 g/ha (weeds; [5]): 0% | pest or weed control at 62.5 g/ha (weeds; [6]): 0% | pest or weed control at 250 g/ha (weeds; [7]): 2% | pest or weed control at 15.625 g/ha (weeds; [8]): 0% | pest or weed control at 62.5 g/ha (weeds; [9]): 0% | pest or weed control at 250 g/ha (weeds; [10]): 2%
